The source of these data is ChEMBL document CHEMBL1201862, “PubChem BioAssay data set” (2004).

What all share (test): growth of human tumour cells (NCI), 48 h
The test system of assay [1] is SK-MEL-28.
Assay [2] relates to MDA-N.
Assay [3] deals with HCT-15.
Assay [4] deals with NCI-H226.
Assay [5] has as its system SF-295.
The subject of assay [6] is KM12.
The subject of assay [7] is CAKI-1.
The test system of assay [8] is SN12C.
For assay [9], the system named is MDA-MB-231.
For assay [10], the system named is SNB-19.
The subject of assay [11] is A549.
For assay [12], the system named is SNB-75.
The test system of assay [13] is SK-OV-3.
Assay [14] has as its system TK-10.
The subject of assay [15] is MDA-MB-435.
Assay [16] relates to OVCAR-4.
Assay [17] deals with EKVX.
For assay [18], the system named is SK-MEL-2.
Assay [19] deals with M14.

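Five concentrations, 48 hours, 96-well plates. Abbreviation: GI50, concentration required for 50% inhibition of growth.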 Calls of active or inactive are those of the source. Rule as the data show it: active = GI50 up to about 1.1 µM and inactive = higher. Where only a bound is given, the exact number is not on record here.

`S=C1NCN2CCN(CC2)CNC(=S)C(=S)NCN2CCN(CC2)CNC1=S`: the GI50 is > 100 µM (inactive) in assay [1]; 67.8 µM (inactive) in assay [2]; 31.3 µM in assay [3]; > 100 µM (inactive) in assay [4]; > 100 µM (inactive) in assay [5]; > 100 µM (inactive) in assay [6]. Further, the GI50 was 35.2 µM (inactive) in [7]; 44.5 µM (inactive) in assay [8]; > 100 µM (inactive) in assay [9]; 41.1 µM (inactive) in assay [10]; 36.8 µM (inactive) in assay [11]; > 100 µM (inactive) in assay [12]. The GI50 in [13] was > 100 µM (inactive); in assay [14], > 100 µM (inactive); in [15], 39.8 µM (inactive); in [16], > 100 µM (inactive); in [17] it was 40.9 µM (inactive); in [18] it was 43.2 µM (inactive). Besides, the GI50 in [19] was 30.1 µM (inactive).

As to `O=C(/C=C/c1ccsc1)c1ccc(Cl)cc1`, the GI50 was > 100 µM (inactive) in assay [1]; 59 µM (inactive) in assay [2]; 39.7 µM in assay [3]; 52 µM (inactive) in [4]; > 100 µM (inactive) in assay [5]; 35.3 µM (inactive) in [6]. Further, the GI50 in [7] was > 100 µM (inactive); in [8] it was 43.4 µM (inactive); in [9] it was 63.7 µM (inactive); in [10] it was 53.8 µM (inactive); in [11], > 100 µM (inactive); in assay [12] it was > 100 µM (inactive). Besides, the GI50 in assay [13] was > 100 µM (inactive); in [14] it was > 100 µM (inactive); in assay [15], 41.8 µM (inactive); in assay [16] it was > 100 µM (inactive); in assay [17] it was 97.7 µM (inactive); in [18], > 100 µM (inactive). Further, the GI50 in [19] is 80.7 µM (inactive).

For the compound `Nc1nc(N)c2ncn(CC3CCC(CO)C3)c2n1` (centres undefined), the GI50 was > 100 µM (inactive) in [1]; > 100 µM (inactive) in assay [2]; greater than 100 µM in [3]; > 100 µM (inactive) in assay [4]; > 100 µM (inactive) in assay [5]; > 100 µM (inactive) in assay [6]. The GI50 in assay [7], in assay [8], in assay [9], in [10], in assay [11] and in assay [12] was > 100 µM (inactive) in each case. The GI50 in assay [13], in assay [14], in assay [15], in [16], in assay [17] and in assay [18] was > 100 µM (inactive) in each case. Besides, the GI50 in assay [19] is > 100 µM (inactive).

In the case of `COc1cccc(N2C(=O)C3CC(CC(C)(C)C)c4c([nH]c5ccccc45)C3C2=O)c1` (centres undefined), the GI50 was > 10 µM (inactive) in assay [1]; > 10 µM (inactive) in assay [2]; greater than 10 µM in assay [3]; 2.77 µM (inactive) in assay [4]; > 10 µM (inactive) in assay [5]; > 10 µM (inactive) in assay [6]. In addition, the GI50 in assay [7] was > 10 µM (inactive); in [8], 6 µM (inactive); in [9], 4.92 µM (inactive); in assay [10], > 10 µM (inactive); in assay [11] it was > 10 µM (inactive); in [12], 1.84 µM (inactive). The GI50 was > 10 µM (inactive) in assay [13]; > 10 µM (inactive) in [14]; > 10 µM (inactive) in [15]; 2.62 µM (inactive) in assay [16]; > 10 µM (inactive) in [17]; > 10 µM (inactive) in assay [18]. Also, in assay [19], the GI50 was 5.82 µM (inactive).

For the compound `Cc1cc(=O)n2nc(CSc3nnc(Sc4cc(O)ccc4O)s3)sc2n1`, the GI50 in assay [1] is 54.1 µM (inactive); in [2] it was 18.6 µM (inactive); in [3] it was greater than 100 µM; in [4] it was > 100 µM (inactive); in assay [5] it was > 100 µM (inactive); in [6], > 100 µM (inactive). For the same compound, the GI50 was > 100 µM (inactive) in assay [7]; 58.1 µM (inactive) in [8]; 34.9 µM (inactive) in assay [9]; > 100 µM (inactive) in assay [10]; > 100 µM (inactive) in assay [11]; > 100 µM (inactive) in assay [12]. Further, the GI50 in [13] was > 100 µM (inactive); in assay [14], > 100 µM (inactive); in assay [15], 18.5 µM (inactive); in assay [16], 54.7 µM (inactive); in [17], 99.3 µM (inactive); in assay [18], > 100 µM (inactive). Besides, in [19], the GI50 was 79.1 µM (inactive).

Regarding `CC(C)(C)OC(=O)N1C/C=C\C(=O)C2(OCCO2)c2ccccc21`, the GI50 in assay [1] is 22.5 µM (inactive); in assay [2], 20.4 µM (inactive); in [3] it was 31.7 µM; in assay [4], 19.1 µM (inactive); in [5], 26.4 µM (inactive); in [6], 31.6 µM (inactive). In addition, the GI50 in assay [7] is 33.7 µM (inactive); in [8] it was 26.5 µM (inactive); in assay [9], 19.6 µM (inactive); in assay [10], 35.5 µM (inactive); in [11], 35.2 µM (inactive); in assay [12], 28.2 µM (inactive). Besides, the GI50 was 37.3 µM (inactive) in assay [13]; 24.3 µM (inactive) in [14]; 17.7 µM (inactive) in assay [15]; 28.4 µM (inactive) in assay [16]; 31.3 µM (inactive) in assay [17]; 24.5 µM (inactive) in assay [18]. Besides, the GI50 in [19] is 20.7 µM (inactive).

Consider `Nc1sccc1S(=O)(=O)c1ccsc1N`, for which the GI50 was > 100 µM (inactive) in assay [1]; > 100 µM (inactive) in assay [2]; greater than 100 µM in assay [3]; > 100 µM (inactive) in assay [4]; > 100 µM (inactive) in [5]; > 100 µM (inactive) in assay [6]. The GI50 in [7], in assay [8], in [9], in [10], in assay [11] and in [12] was > 100 µM (inactive) in each case. Further, the GI50 in assay [13], in [14], in [15], in assay [16], in assay [17] and in assay [18] was > 100 µM (inactive) throughout. Also, the GI50 in assay [19] is > 100 µM (inactive).

On to `CC1(C)C(/C=N\O)=[N+]([O-])C(C)(C)N1O`, for which the GI50 in assay [1] is > 100 µM (inactive); in assay [2], 52.7 µM (inactive); in assay [3], greater than 100 µM; in assay [4], > 100 µM (inactive); in assay [5], > 100 µM (inactive); in [6], > 100 µM (inactive). In addition, the GI50 in assay [7], in [8], in assay [9], in [10], in [11] and in [12] was > 100 µM (inactive) in each case. For the same compound, the GI50 was > 100 µM (inactive) in assay [13]; > 100 µM (inactive) in [14]; 25.2 µM (inactive) in [15]; > 100 µM (inactive) in assay [16]; > 100 µM (inactive) in assay [17]; > 100 µM (inactive) in assay [18]. Also, the GI50 in [19] was > 100 µM (inactive).

Take `CC1OC(c2ccc3c(c2O)C(=O)C2=C(C3=O)C3(O)C(=O)CC(C)(O)CC3(O)C=C2)CC(O)C1O` (centres undefined): the GI50 in assay [1] was 15.7 µM (inactive); in assay [2], 3.23 µM (inactive); in assay [3], 14.5 µM; in assay [4], 19.8 µM (inactive); in assay [5], 16.6 µM (inactive); in assay [6], 21.3 µM (inactive). Also, the GI50 in assay [7] was 7.28 µM (inactive); in assay [8] it was 15 µM (inactive); in [9], 2.25 µM (inactive); in [10], 18.4 µM (inactive); in assay [11], 26.3 µM (inactive); in [12], 18.2 µM (inactive). For the same compound, the GI50 is 41.3 µM (inactive) in assay [13]; 15.1 µM (inactive) in [14]; 10.6 µM (inactive) in assay [15]; 13.7 µM (inactive) in [16]; 16 µM (inactive) in assay [17]; 20.5 µM (inactive) in [18]. Moreover, the GI50 in [19] is 16.1 µM (inactive).

Consider `CC1(C)CC2=C(SC3C=CC=CC3N2)C(=O)C1C(=O)C(N)=O` (centres undefined), for which the GI50 is > 100 µM (inactive) in [1]; > 100 µM (inactive) in [2]; greater than 100 µM in assay [3]; 91 µM (inactive) in assay [4]; > 100 µM (inactive) in [5]; > 100 µM (inactive) in assay [6]. Besides, the GI50 in assay [7], in assay [8], in assay [9], in assay [10], in assay [11] and in [12] was > 100 µM (inactive) in each case. The GI50 in assay [13], in [14], in [15], in assay [16], in assay [17] and in assay [18] was > 100 µM (inactive) each time. Also, the GI50 in assay [19] was > 100 µM (inactive).

As for `CCCNC(=O)CCC(C)[C@H]1CCC2C3C(C[C@H](OC(C)=O)[C@@]21C)[C@@]1(C)CCC2(C[C@H]1C[C@H]3OC(C)=O)OOC1(CCCCC1)OO2` (some centres undefined), the GI50 in assay [1] was 55.5 µM (inactive); in assay [2], 3.05 µM (inactive); in assay [3] it was 3.68 µM; in assay [4], 3.84 µM (inactive); in assay [5] it was 3.79 µM (inactive); in assay [6], 1.44 µM (inactive). Further, the GI50 in assay [7] is 0.367 µM (active); in [8] it was 3.01 µM (inactive); in assay [9] it was 1.94 µM (inactive); in assay [10], 7.18 µM (inactive); in assay [11], 0.416 µM (active); in assay [12], 1.9 µM (inactive). The GI50 in assay [13] was 24.9 µM (inactive); in assay [14], 1.95 µM (inactive); in assay [15] it was 2.23 µM (inactive); in assay [16], 1.74 µM (inactive); in assay [17], 1.58 µM (inactive); in assay [18], 2 µM (inactive). Also, the GI50 in assay [19] is 5.02 µM (inactive).
